Data: ChEMBL document CHEMBL1125960, “Synthesis and biological activity of fluorinated intermediates of the methionine salvage pathway” (Bioorg Med Chem Lett, 1991)

Experiments:
[1] = test system: Plasmodium falciparum; assay: Growth inhibition of chloroquine-resistant Plasmodium falciparum; assay type: functional, organism-based
[2] = test system: Plasmodium falciparum; assay: Growth inhibition of pyrimethamine-resistant Plasmodium falciparum; assay type: functional, organism-based
[3] = test system: Plasmodium falciparum; assay: Growth inhibition of Plasmodium falciparum FCB125; assay type: functional, organism-based
[4] = test system: AIK-T4; assay: (§1) The compound was evaluated for toxicity against HIV infected T4 lymphocytes; assay type: functional; conditions: Homo sapiens
[5] = test system: NCI-H522; assay: The compound was evaluated for its ability to inhibit growth of non small cell lung cancer ([…] cell line); assay type: functional; conditions: Homo sapiens
[6] = test system: AIK-T4; assay: as §1; assay type: functional, cell-based; conditions: Homo sapiens

For `OC1OC(CSC(F)(F)F)C(O)C1O` (centres undefined), the IC50 [1] was > 100 µM, the IC50 [2] was 50 µM and the IC50 [3] was > 100 µM.
`NC1=NCN=C2C1N=CN2C1O[C@H](CSC(F)(F)F)[C@@H](O)[C@H]1O` (some centres undefined) gave a GI50 [4] of 0.117 µM and an IC50 [3] of 0.018 µM.
`NC1=NCN=C2C1N=CN2C1O[C@H](CSCCF)[C@@H](O)[C@H]1O` (some centres undefined) showed an IC50 [3] of 0.043 µM.
`NC1=NCN=C2C1N=CN2C1O[C@H](CSC(F)F)[C@@H](O)[C@H]1O` (some centres undefined) gave a GI50 [5] of 86 µM, an IC50 [6] of 222 µM and an IC50 [3] of 35 µM.
For `NC1=NCN=C2C1N=CN2C1O[C@H](CSCC(F)(F)F)[C@@H](O)[C@H]1O` (some centres undefined), the GI50 [5] was 45 µM, the IC50 [6] was 0.245 µM and the IC50 [3] was 0.085 µM.
`NC1=NCN=C2C1N=CN2C1O[C@H](CSCC(F)F)[C@@H](O)[C@H]1O` (some centres undefined) gave an IC50 [3] of 0.025 µM.
In the case of `OC1O[C@H](CSC(F)F)[C@@H](O)[C@H]1O` (some centres undefined), the IC50 [3] is reported as > 100 µM.
